Results on six compounds are retold here after patent US20110009437A1, “CARBOXAMIDE-HETEROARYL DERIVATIVES FOR THE TREATMENT OF DIABETES” (MERCK PATENT GESELLSCHAFT MIT BESCHRANKTER HAFTUNG, priority 2008, published 2011).

For the experiment, the target named is T1, Glucokinase (Homo sapiens, UniProt P35557).
T1 sequence (P35557 1-465): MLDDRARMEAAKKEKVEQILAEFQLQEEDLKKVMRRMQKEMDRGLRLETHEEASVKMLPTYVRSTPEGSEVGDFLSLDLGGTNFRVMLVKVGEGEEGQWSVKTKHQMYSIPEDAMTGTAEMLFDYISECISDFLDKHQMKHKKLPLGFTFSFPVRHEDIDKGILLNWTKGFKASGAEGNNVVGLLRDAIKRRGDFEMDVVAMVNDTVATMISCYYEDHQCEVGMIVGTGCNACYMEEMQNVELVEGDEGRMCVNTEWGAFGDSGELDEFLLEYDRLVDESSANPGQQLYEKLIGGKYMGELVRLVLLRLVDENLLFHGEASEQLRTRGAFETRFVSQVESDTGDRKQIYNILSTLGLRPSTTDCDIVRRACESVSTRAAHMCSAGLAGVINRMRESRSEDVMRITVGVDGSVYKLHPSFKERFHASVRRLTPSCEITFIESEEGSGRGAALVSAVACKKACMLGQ
Briefly: Glucokinase Activation Screening Assay (coupled enzyme assay with PK/LDH). It counts as biochemical. To be noted: human GK enzyme. The method, then: GK activity (human or rat enzyme) is measured by a coupled enzyme assay using pyruvate kinase (PK) and lactate dehydrogenase (LDH) as coupling enzymes. GK activity is calculated from the decline in NADH monitored photometrically with a microtiter plate (MTP) reader at 340 nm. For screening purposes, the GK assay is routinely run in a 384-MTP format, in a total volume of 33 μl/well. 10 μl of the ATP-regeneration solution (in HEPES-buffer*, pH 7.0, 6.73 U/ml pyruvate kinase, 6.8 U/ml lactate dehydrogenase) and 10 μl of the glucokinase-/glucose solution (15 μg/ml, 6.6 mM glucose in HEPES-buffer*, pH 7.0; the concentration of the glucose stock-solution was 660 mM in Millipore H2O) were mixed together with […] of a 10% DMSO solution (in HEPES-buffer*, pH 7.0) containing 3.3-fold the amounts of the compounds to achieve final compound concentrations in the range between 1 nM to 30 μM (sometimes 300 μM) in the assay solution (s. below). The solutions were mixed for 5 sec, and after a centrifugation at 243×g for 5 min, the solutions were preincubated for 25 min at room temperature.
The reaction was started by the addition of 10 μl of the NADH-/ATP-solution (4.29 mM NADH, 4.95 mM ATP, in HEPES-buffer*). The MTP was shaken for 5 sec., and then, the absorbance at 340 nm was monitored continuously in a MTP-reader (TECAN Spectro fluor plus) for the next 27 min (with a MTP-cycling time of 199 sec.). The final concentrations of the various components were as follows: 49.5 mM Hepes, pH 7.0, 1.49 mM PEP,1,3 mM NADH, 49.5 mM KCl, 4.96 mM MgCl2, 1.5 mM Mg-ATP, 1.98 mM DTT, 2.04 U/ml pyruvate kinase, 2.06 U/ml lactate-dehydrogenase, 0.91% DMSO, 0.15 μg/well glucokinase, and test compounds in the range between 1 nM and […] The change in the optical density (ΔOD340 nm) in the presence of the compound was expressed relative to the ΔOD340 nm, ctrl of the control incubation (in the presence of 2 mM glucose and 0.91% DMSO), taking into account the optical density of the blank sample (incubation in the absence of 2 mM glucose). For the determination of the half maximal effective concentration (EC50), the %-Ctrl-values were plotted in a semi-logarithmic graph against the conc. of the compound of interest. The data points were fitted to a sigmoid curve function (f(x)=((%-Ctrlmax−%-Ctrlmin)/(1−(EC50/x**^n(Hill)))+%-Ctrlmin)) by a non-linear regression analysis.
*Hepes-buffer (50 mM Hepes, pH 7.0, 5 mM MgCl2, 50 mM KCl, 1.5 mM PEP, 0.1% BSA). DTT was added to the Hepes-buffer from a 200× stock solution (in Millipore H2O) freshly each day. The final concentration of DTT in the Hepes-buffer is 2 mM.
For `CN(C)c1cc(C(=O)Nc2ccn(Cc3cccnc3)n2)cc(Oc2ccccc2)n1` [B2, 2-Dimethylamino-6-phenoxy-N-(1-pyridin-3-ylmethyl-1H-pyrazol-3-yl)-isonicotinamide], the “fold activation (human)” value amounted to 3.3 fold.
For the compound `COCCN(C)c1cc(C(=O)Nc2ccn(Cc3cccnc3)n2)cc(Oc2ccccc2)n1` [B4, 2-[(2-Methoxy-ethyl)-methyl-amino]-6-phenoxy-N-(1-pyridin-3-ylmethyl-1H-pyrazol-3-yl)-isonicotinamide], the “fold activation (human)” value is 1.8 fold.
Regarding `Cn1ccc(NC(=O)c2cc(Cl)nc(Oc3ccccc3)c2)n1` [B5, 2-Chloro-N-(1-methyl-1H-pyrazol-3-yl)-6-phenoxy-isonicotinamide], the “fold activation (human)” value is 1.3 fold.
As for `COCCN(C)c1cc(C(=O)Nc2ccn(C)n2)cc(Oc2ccccc2)n1` [B6, 2-[(2-Methoxy-ethyl)-methyl-amino]-N-(1-methyl-1H-pyrazol-3-yl)-6-phenoxy-isonicotinamide], the “fold activation (human)” value is 3.4 fold.
On to `COCC(C)Oc1cc(OC(C)COC)nc(C(=O)Nc2ccn(C)n2)n1` (stereo not drawn) [B7, 4,6-Bis-(2-methoxy-1-methyl-ethoxy)-pyrimidine-2-carboxylic acid (1-methyl-1H-pyrazol-3-yl)-amide], for which the “fold activation (human)” value is on record as 1.3 fold.
Take `CN(Cc1ccccc1)c1cc(C(=O)Nc2ccn(C)n2)cc(Oc2ccccc2)n1` [B8, 2-(Benzyl-methyl-amino)-N-(1-methyl-1H-pyrazol-3-yl)-6-phenoxy-isonicotinamide]: the “fold activation (human)” value is on record as 1.4 fold.
